“Also recorded” adds a separate entry of the source.
How the values were obtained:
[1] = system: germinated seeds of lettuce; assay: L-DOPA assay on germinated seeds
Description: Germinated seeds of lettuce were incubated with L-DOPA. […] This colour reaction can be used for screening seeds that show a reduced discolouration.

PPO = assay: L-DOPA leaf disc assay: black discolouration (melanin) at wound surface; format: cell-based, lettuce
Description: In addition to assays which address wound-induced discolouration in a broad sense, the method according to this invention also allows to screen in a more specific manner for mutants which have a reduced PPO activity. A phenotypic assay which is indicative for PPO activity was developed by using leaf discs which were incubated in the presence of 1.5 mM L-DOPA. […] Furthermore, it was shown that the reaction can be inhibited by adding 1 mM L-cysteine during the reaction (FIG. 5). Therefore, this assay enabled the identification of mutants which are modified in the ability to mount a PPO activity at a wound surface of a leaf. The response of lettuce leaf discs to the presence of L-DOPA can be observed both in solution as well as between wetted filter papers as shown in FIG. 13.

seeds of eggplant = assay: L-DOPA assay on seeds
Description: (§1) Seeds of lettuce and eggplant were incubated with 0, 2.5 and 5 mM L-DOPA. […] The response is PPO-dependent because it can be inhibited with L-cysteine.

seeds of lettuce = assay: L-DOPA assay on seeds
Description: as §1

lettuce leaf discs = assay: leaf disc pinking assay: wound-induced pink discolouration between wetted filter papers; format: cell-based; conditions: for effect on formation of the pink dye (pinking response): applied during the reaction; for concentration at which the pink discolouration was completely inhibited: applied during the assay, 5° C. for 7 days
Description: A phenotypic assay was developed in which leaf discolouration of lettuce induced by wounding can readily be assessed. This approach allows young plant screening for discolouration. Leaf discs of 5 mm diameter were taken from young or mature plants and placed between wetted filter papers in a tray. The system was incubated at 5° C. for 7 days. During the incubation a pink dye developed at the wound site of the leaf disc which became clearly visible as a printed circle on the filter paper (FIG. 2).

[2] = system: field-grown lettuce plant showing severe pinking symptoms; assay: pinking of leaf discs from field-grown lettuce; conditions: 1 mM, approximately 30 minutes at room temperature
Description: This is typically observed when plants have been stressed, for example by conditions of severe water logging. The leaf was used to prepare leaf discs which were incubated immediately by 1 mM L-cysteine.

[3] = treatment of the formed pink dye after the wound response was completed; set-up: species or system lettuce; conditions: added after the wound response was completed; 0-10 mM series for L-cysteine
Description: (§2) As L-cysteine is known to react with o-quinones, which are PPO products, by converting them back into colourless diphenols, the effects of L-cysteine on the pink dye coming from lettuce leaf discs was determined. In parallel the effect of L-cysteine was determined on the melanin formation upon incubation with L-DOPA. Leaf discs were taken and incubated according to the procedures described above. After the wound response was completed, a concentration series of L-cysteine was added to the leaf disc and the change in colour was monitored.

[4] = system: lettuce outer leaf midrib tissue discs; assay: midrib disc / cut leaf browning assay; format: cell-based
Description: A further embodiment of this invention is based on the following experiment. Parts of a lettuce leaf of a head are produced by cutting and incubated at 16° C. in air. As a response the wound surface turns brown after approximately 4 days. Especially at the wound surface of the main vein the browning can clearly be observed. Furthermore, the browning reaction can also be observed at the whole plant level upon damaging leaves by cutting or abrasion. Lettuce plants were grown to maturity and parts of outer leaves were taken by cutting discs from the rib tissue. The discs were incubated on wetted filter paper at 16° C. After approximately 72 hours, the wound surface had turned brown.

[5] = treatment of melanin formed in the L-DOPA assay after the response was completed; set-up: species or system lettuce; conditions: added after the response was completed; 0-10 mM series
Description: as §2

leaf discs of lettuce = assay: chlorogenic acid assay on leaf discs; format: cell-based
Description: Leaf discs of lettuce were incubated with 10 mM chlorogenic acid on filter paper.

lettuce seeds = assay: catechol assay on seeds
Description: Lettuce seeds were incubated with 0, 100, 250, 500, 750 and 1000 mg/L catechol.

N[C@@H](Cc1ccc(O)c(O)c1)C(=O)O [L-DOPA, L-3,4-dihydroxyphenylalanine]
colour reaction of seed coat and root zone with the substrate [1]: show a colour reaction | discolouration at the wound surface on incubation with the substrate (PPO; 1.5 mM L-DOPA): dark brown to black discolouration | colour reaction of seeds with the substrate (seeds of eggplant; 0, 2.5 and 5 mM): concentration dependent | colour reaction of seeds with the substrate (seeds of lettuce; 0, 2.5 and 5 mM): concentration dependent

C[C@H](N)C(=O)O [L-alanine]
effect on formation of the pink dye (pinking response) (lettuce leaf discs): did not show any effect

N[C@@H](CS)C(=O)O [L-cysteine]
concentration at which the pink discolouration was completely inhibited (lettuce leaf discs): ≥ 0.001% | effect on formation of the pink dye (pinking response) (lettuce leaf discs): strongly suppressed | effect on pink discolouration of field-grown leaf material [2]: pink discolouration disappeared; also recorded: eliminated | effect on the already formed pink dye [3]: converting the pink dye back into a colourless compound; also recorded: converted into a colourless compound | effect on browning response of midrib discs ([4]; 10 mM, 16° C., approximately 72 hours): inhibited | effect on wound-induced browning reactions (cut leaf parts, whole plant) ([4]; 16° C. in air, concentration not given): completely be inhibited | effect on already formed black melanin [5]: not affected | effect on black L-DOPA discolouration (PPO; applied simultaneously with L-DOPA): completely inhibited | effect on chlorogenic acid induced colour (leaf discs of lettuce; added to discs incubated with 10 mM chlorogenic acid): the colour disappeared again | effect on L-DOPA colour response of seeds (seeds of eggplant): inhibited | effect on L-DOPA colour response of seeds (seeds of lettuce): inhibited | effect on catechol colour response of seeds (lettuce seeds): inhibited

CC(C)C[C@H](N)C(=O)O [L-leucine]
effect on formation of the pink dye (pinking response) (lettuce leaf discs): did not show any effect

O=C1O[C@H]([C@@H](O)CO)C(O)=C1O [ascorbic acid]
effect on the already formed pink dye [3]: convert the pink dye into a colourless compound

Oc1ccccc1O [catechol]
colour response of seeds with the substrate (lettuce seeds; 0, 100, 250, 500, 750 and 1000 mg/L): concentration dependent colour response

O=C(/C=C/c1ccc(O)c(O)c1)O[C@@H]1C[C@](O)(C(=O)O)C[C@@H](O)[C@H]1O [chlorogenic acid]
discolouration of discs on incubation with the substrate (leaf discs of lettuce; 10 mM on filter paper): browning

O=CC=Cc1ccccc1 [cinnamaldehyde]
concentration at which the pink discolouration was completely inhibited (lettuce leaf discs): ≥ 0.01% | effect on formation of the pink dye (pinking response) (lettuce leaf discs): inhibited

N[C@@H](CCC(=O)N[C@@H](CS)C(=O)NCC(=O)O)C(=O)O [glutathion]
effect on the already formed pink dye [3]: convert the pink dye into a colourless compound

Reference: US20130237452A1, “Screening method for selecting plants that show a reduced wound-induced surface discolouration” (RIJK ZWAAN ZAADTEELT EN ZAADHANDEL B.V., priority 2006, published 2013)
